Measurements as given in ChEMBL document CHEMBL3352227, “Synthesis, antimycobacterial and antibacterial evaluation of l-[(1R, 2S)-2-fluorocyclopropyl]fluoroquinolone derivatives containing an oxime functional moiety” (Eur J Med Chem, 2014).
Converted amounts (≈) assume the structure as drawn.

Key:
Format in all cases: functional
[1] = system: Staphylococcus epidermidis; experiment: Antibacterial activity against methicillin-sensitive Staphylococcus epidermidis 12-8 after 18 to 24 hrs by standard twofold serial dilution method
Streptococcus pneumoniae [2] = experiment: Antibacterial activity against Streptococcus pneumoniae ATCC 49619 after 18 to 24 hrs by standard twofold serial dilution method
[3] = system: Staphylococcus epidermidis; experiment: Antibacterial activity against methicillin-sensitive Staphylococcus epidermidis 12-6 after 18 to 24 hrs by standard twofold serial dilution method
Escherichia coli [4] = experiment: Antibacterial activity against Escherichia coli 12-1 after 18 to 24 hrs by standard twofold serial dilution method
Pseudomonas aeruginosa [5] = experiment: Antibacterial activity against Pseudomonas aeruginosa 12-12 after 18 to 24 hrs by standard twofold serial dilution method
[6] = system: Staphylococcus epidermidis; experiment: Antibacterial activity against methicillin-resistant Staphylococcus epidermidis 12-1 after 18 to 24 hrs by standard twofold serial dilution method
[7] = system: Staphylococcus epidermidis; experiment: Antibacterial activity against methicillin-resistant Staphylococcus epidermidis 12-6 after 18 to 24 hrs by standard twofold serial dilution method
Klebsiella pneumoniae [8] = experiment: Antibacterial activity against extended-spectrum beta-lactamase producin Klebsiella pneumoniae 12-4 after 18 to 24 hrs by standard twofold serial dilution method
Klebsiella pneumoniae [9] = experiment: Antibacterial activity against extended-spectrum beta-lactamase producin Klebsiella pneumoniae 12-14 after 18 to 24 hrs by standard twofold serial dilution method
Klebsiella pneumoniae [10] = experiment: Antibacterial activity against Klebsiella pneumoniae 12-4 after 18 to 24 hrs by standard twofold serial dilution method
[11] = system: Mycobacterium tuberculosis; experiment: Antimycobacterial activity against Mycobacterium tuberculosis H37Rv ATCC 27294 by MABA method
Klebsiella pneumoniae [12] = experiment: Antibacterial activity against extended-spectrum beta-lactamase producin Klebsiella pneumoniae 12-3 after 18 to 24 hrs by standard twofold serial dilution method
Staphylococcus aureus [13] = experiment: Antibacterial activity against methicillin-sensitive Staphylococcus aureus 12-5 after 18 to 24 hrs by standard twofold serial dilution method
Escherichia coli [14] = experiment: Antibacterial activity against Escherichia coli ATCC 25922 after 18 to 24 hrs by standard twofold serial dilution method
Escherichia coli [15] = experiment: Antibacterial activity against extended-spectrum beta-lactamase producing Escherichia coli 12-14 after 18 to 24 hrs by standard twofold serial dilution method
Escherichia coli [16] = experiment: Antibacterial activity against extended-spectrum beta-lactamase producing Escherichia coli 12-15 after 18 to 24 hrs by standard twofold serial dilution method
Staphylococcus aureus [17] = experiment: Antibacterial activity against methicillin-sensitive Staphylococcus aureus 12-2 after 18 to 24 hrs by standard twofold serial dilution method
Streptococcus pneumoniae [18] = experiment: Antibacterial activity against Streptococcus pneumoniae 12-18 after 18 to 24 hrs by standard twofold serial dilution method
Klebsiella pneumoniae [19] = experiment: Antibacterial activity against extended-spectrum beta-lactamase producin Klebsiella pneumoniae 12-7 after 18 to 24 hrs by standard twofold serial dilution method
Klebsiella pneumoniae [20] = experiment: Antibacterial activity against Klebsiella pneumoniae 12-2 after 18 to 24 hrs by standard twofold serial dilution method
Staphylococcus aureus [21] = experiment: Antibacterial activity against methicillin-resistant Staphylococcus aureus 12-5 after 18 to 24 hrs by standard twofold serial dilution method
Klebsiella pneumoniae [22] = experiment: Antibacterial activity against Klebsiella pneumoniae 12-1 after 18 to 24 hrs by standard twofold serial dilution method
Escherichia coli [23] = experiment: Antibacterial activity against extended-spectrum beta-lactamase producing Escherichia coli 12-3 after 18 to 24 hrs by standard twofold serial dilution method
[24] = system: Staphylococcus epidermidis; experiment: Antibacterial activity against methicillin-sensitive Staphylococcus epidermidis 12-1 after 18 to 24 hrs by standard twofold serial dilution method
Staphylococcus aureus [25] = experiment: Antibacterial activity against methicillin-resistant Staphylococcus aureus 12-2 after 18 to 24 hrs by standard twofold serial dilution method
[26] = system: Staphylococcus epidermidis; experiment: Antibacterial activity against methicillin-sensitive Staphylococcus epidermidis 12-3 after 18 to 24 hrs by standard twofold serial dilution method
Staphylococcus aureus [27] = experiment: Antibacterial activity against methicillin-sensitive Staphylococcus aureus 12-4 after 18 to 24 hrs by standard twofold serial dilution method
Staphylococcus aureus [28] = experiment: Antibacterial activity against Staphylococcus aureus ATCC 25923 after 18 to 24 hrs by standard twofold serial dilution method
Pseudomonas aeruginosa [29] = experiment: Antibacterial activity against Pseudomonas aeruginosa 12-14 after 18 to 24 hrs by standard twofold serial dilution method
Escherichia coli [30] = experiment: Antibacterial activity against extended-spectrum beta-lactamase producing Escherichia coli 12-2 after 18 to 24 hrs by standard twofold serial dilution method
Staphylococcus aureus [31] = experiment: Antibacterial activity against methicillin-resistant Staphylococcus aureus 12-4 after 18 to 24 hrs by standard twofold serial dilution method
Staphylococcus aureus [32] = experiment: Antibacterial activity against methicillin-sensitive Staphylococcus aureus 12-1 after 18 to 24 hrs by standard twofold serial dilution method

SMILES	MIC [1]	MIC (Streptococcus pneumoniae [2])	MIC [3]	MIC (Escherichia coli [4])	MIC (Pseudomonas aeruginosa [5])	MIC [6]	MIC [7]	MIC (Klebsiella pneumoniae [8])	MIC (Klebsiella pneumoniae [9])	MIC (Klebsiella pneumoniae [10])	MIC [11]	MIC (Klebsiella pneumoniae [12])	MIC (Staphylococcus aureus [13])	MIC (Escherichia coli [14])	MIC (Escherichia coli [15])	MIC (Escherichia coli [16])	MIC (Staphylococcus aureus [17])	MIC (Streptococcus pneumoniae [18])	MIC (Klebsiella pneumoniae [19])	MIC (Klebsiella pneumoniae [20])	also measured
NCC1CN(c2c(F)cc3c(=O)c(C(=O)O)cn([C@@H]4C[C@@H]4F)c3c2Cl)C/C1=N/OCc1ccccc1 (some centres undefined)	64 µg/mL (≈ 124 µM)	1 µg/mL (≈ 1.93 µM)	0.5 µg/mL (≈ 0.967 µM)	32 µg/mL (≈ 61.9 µM)	8 µg/mL (≈ 15.5 µM)	0.5 µg/mL (≈ 0.967 µM)	64 µg/mL (≈ 124 µM)	32 µg/mL (≈ 61.9 µM)	> 128 µg/mL	2 µg/mL (≈ 3.87 µM)	16 µg/mL (≈ 31 µM)	> 128 µg/mL	0.5 µg/mL (≈ 0.967 µM)	0.5 µg/mL (≈ 0.967 µM)	> 128 µg/mL	> 128 µg/mL	0.5 µg/mL (≈ 0.967 µM)	8 µg/mL (≈ 15.5 µM)	16 µg/mL (≈ 31 µM)	2 µg/mL (≈ 3.87 µM)	MIC (Staphylococcus aureus [21]): 0.5 µg/mL (≈ 0.967 µM); MIC (Klebsiella pneumoniae [22]): 2 µg/mL (≈ 3.87 µM); MIC (Escherichia coli [23]): 32 µg/mL (≈ 61.9 µM); MIC [24]: 0.5 µg/mL (≈ 0.967 µM); MIC (Staphylococcus aureus [25]): 0.5 µg/mL (≈ 0.967 µM); MIC [26]: 1 µg/mL (≈ 1.93 µM); MIC (Staphylococcus aureus [27]): 0.25 µg/mL (≈ 0.484 µM); MIC (Staphylococcus aureus [28]): 0.25 µg/mL (≈ 0.484 µM); MIC (Pseudomonas aeruginosa [29]): 64 µg/mL (≈ 124 µM); MIC (Escherichia coli [30]): > 128 µg/mL; MIC (Staphylococcus aureus [31]): 0.5 µg/mL (≈ 0.967 µM); MIC (Staphylococcus aureus [32]): 0.5 µg/mL (≈ 0.967 µM)
CO/N=C1/CN(c2cc3c(cc2F)c(=O)c(C(=O)O)cn3[C@@H]2C[C@@H]2F)[C@@H]1CN	8 µg/mL (≈ 20.4 µM)	0.5 µg/mL (≈ 1.27 µM)	0.5 µg/mL (≈ 1.27 µM)	0.5 µg/mL (≈ 1.27 µM)	1 µg/mL (≈ 2.55 µM)	16 µg/mL (≈ 40.8 µM)	16 µg/mL (≈ 40.8 µM)	16 µg/mL (≈ 40.8 µM)	128 µg/mL (≈ 326 µM)	0.25 µg/mL (≈ 0.637 µM)	1 µg/mL (≈ 2.55 µM)	128 µg/mL (≈ 326 µM)	0.5 µg/mL (≈ 1.27 µM)	0.06 µg/mL (≈ 0.153 µM)	128 µg/mL (≈ 326 µM)	> 128 µg/mL	0.5 µg/mL (≈ 1.27 µM)	2 µg/mL (≈ 5.1 µM)	4 µg/mL (≈ 10.2 µM)	0.5 µg/mL (≈ 1.27 µM)	MIC (Staphylococcus aureus [21]): 64 µg/mL (≈ 163 µM); MIC (Klebsiella pneumoniae [22]): 1 µg/mL (≈ 2.55 µM); MIC (Escherichia coli [23]): 128 µg/mL (≈ 326 µM); MIC [24]: 0.5 µg/mL (≈ 1.27 µM); MIC (Staphylococcus aureus [25]): 64 µg/mL (≈ 163 µM); MIC [26]: 1 µg/mL (≈ 2.55 µM); MIC (Staphylococcus aureus [27]): 0.25 µg/mL (≈ 0.637 µM); MIC (Staphylococcus aureus [28]): 0.5 µg/mL (≈ 1.27 µM); MIC (Pseudomonas aeruginosa [29]): 64 µg/mL (≈ 163 µM); MIC (Escherichia coli [30]): > 128 µg/mL; MIC (Staphylococcus aureus [31]): 128 µg/mL (≈ 326 µM); MIC (Staphylococcus aureus [32]): 0.5 µg/mL (≈ 1.27 µM)
